Laboratory results: ChEMBL document CHEMBL4507268 (2021)

Tests used:
Details in all cases: Compound concentration 1000.0 nM
[1] = target: Cyclin-dependent kinase 19 (Homo sapiens) (UniProt Q9BWU1)
[2] = target: Cyclin-dependent kinase 5 (Homo sapiens) (UniProt Q00535)
[3] = target: T1, Discoidin domain-containing receptor 2 (Homo sapiens) (UniProt Q16832)
T1 sequence (whole entry): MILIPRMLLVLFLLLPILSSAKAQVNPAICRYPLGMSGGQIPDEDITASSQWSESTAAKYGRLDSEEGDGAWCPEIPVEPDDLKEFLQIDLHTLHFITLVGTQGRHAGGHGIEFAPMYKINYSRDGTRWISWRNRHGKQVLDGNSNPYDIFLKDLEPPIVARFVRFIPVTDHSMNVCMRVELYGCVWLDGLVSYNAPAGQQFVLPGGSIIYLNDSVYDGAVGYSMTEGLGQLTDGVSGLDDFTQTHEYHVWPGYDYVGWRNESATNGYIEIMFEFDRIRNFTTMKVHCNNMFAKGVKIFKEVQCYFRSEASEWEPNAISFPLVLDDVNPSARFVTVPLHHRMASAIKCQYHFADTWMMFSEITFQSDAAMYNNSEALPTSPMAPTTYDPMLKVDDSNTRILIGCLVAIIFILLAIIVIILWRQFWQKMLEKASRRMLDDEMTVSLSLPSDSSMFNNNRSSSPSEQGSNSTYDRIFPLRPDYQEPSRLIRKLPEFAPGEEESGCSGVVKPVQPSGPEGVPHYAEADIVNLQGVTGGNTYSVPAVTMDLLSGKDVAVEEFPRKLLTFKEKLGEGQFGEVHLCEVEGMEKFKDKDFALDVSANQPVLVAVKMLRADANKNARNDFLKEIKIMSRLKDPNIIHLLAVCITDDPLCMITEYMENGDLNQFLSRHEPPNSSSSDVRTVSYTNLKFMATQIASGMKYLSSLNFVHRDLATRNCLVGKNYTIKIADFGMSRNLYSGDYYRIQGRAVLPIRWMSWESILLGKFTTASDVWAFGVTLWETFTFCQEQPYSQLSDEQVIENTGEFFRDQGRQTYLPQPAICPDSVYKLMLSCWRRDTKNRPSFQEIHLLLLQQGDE

[4] = target: Mitogen-activated protein kinase kinase kinase 12 (Homo sapiens) (UniProt Q12852)
[5] = target: T2, Serine/threonine-protein kinase 17A (Homo sapiens) (UniProt Q9UEE5)
T2 sequence (whole entry): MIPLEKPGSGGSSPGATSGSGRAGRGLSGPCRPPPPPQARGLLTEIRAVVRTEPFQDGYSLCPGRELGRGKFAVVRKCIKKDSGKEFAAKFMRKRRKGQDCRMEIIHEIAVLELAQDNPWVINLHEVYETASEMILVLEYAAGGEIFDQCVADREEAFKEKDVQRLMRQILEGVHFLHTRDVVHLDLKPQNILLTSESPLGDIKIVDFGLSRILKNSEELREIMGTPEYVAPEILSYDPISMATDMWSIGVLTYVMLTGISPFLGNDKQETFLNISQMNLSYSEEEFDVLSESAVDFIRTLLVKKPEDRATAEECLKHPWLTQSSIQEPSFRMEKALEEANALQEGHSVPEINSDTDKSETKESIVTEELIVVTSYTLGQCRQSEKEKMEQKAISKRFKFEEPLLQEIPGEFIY

[6] = target: Ephrin type-A receptor 4 (Homo sapiens) (UniProt P54764)
[7] = target: Fibroblast growth factor receptor 3 (Homo sapiens) (UniProt P22607)
[8] = target: Mitogen-activated protein kinase 9 (Homo sapiens) (UniProt P45984)
[9] = target: T3, Dual specificity mitogen-activated protein kinase kinase 6 (Homo sapiens) (UniProt P52564)
T3 sequence (whole entry): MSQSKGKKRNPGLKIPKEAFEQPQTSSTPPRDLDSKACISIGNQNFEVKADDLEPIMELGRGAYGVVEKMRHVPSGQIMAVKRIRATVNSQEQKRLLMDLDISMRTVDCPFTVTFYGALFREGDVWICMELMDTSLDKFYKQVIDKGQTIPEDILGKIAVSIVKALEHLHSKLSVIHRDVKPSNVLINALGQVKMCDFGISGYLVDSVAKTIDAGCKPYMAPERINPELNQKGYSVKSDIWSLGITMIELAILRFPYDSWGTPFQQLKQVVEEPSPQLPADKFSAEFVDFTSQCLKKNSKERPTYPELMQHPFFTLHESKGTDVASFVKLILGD

[10] = target: Myosin light chain kinase family member 4 (Homo sapiens) (UniProt Q86YV6)
[11] = target: Cyclin-dependent kinase 14 (Homo sapiens) (UniProt O94921)
[12] = target: cAMP-dependent protein kinase catalytic subunit beta (Homo sapiens) (UniProt P22694)
[13] = target: Serine/threonine-protein kinase PLK1 (Homo sapiens) (UniProt P53350)
[14] = target: T4, NUAK family SNF1-like kinase 2 (Homo sapiens) (UniProt Q9H093)
T4 sequence (whole entry): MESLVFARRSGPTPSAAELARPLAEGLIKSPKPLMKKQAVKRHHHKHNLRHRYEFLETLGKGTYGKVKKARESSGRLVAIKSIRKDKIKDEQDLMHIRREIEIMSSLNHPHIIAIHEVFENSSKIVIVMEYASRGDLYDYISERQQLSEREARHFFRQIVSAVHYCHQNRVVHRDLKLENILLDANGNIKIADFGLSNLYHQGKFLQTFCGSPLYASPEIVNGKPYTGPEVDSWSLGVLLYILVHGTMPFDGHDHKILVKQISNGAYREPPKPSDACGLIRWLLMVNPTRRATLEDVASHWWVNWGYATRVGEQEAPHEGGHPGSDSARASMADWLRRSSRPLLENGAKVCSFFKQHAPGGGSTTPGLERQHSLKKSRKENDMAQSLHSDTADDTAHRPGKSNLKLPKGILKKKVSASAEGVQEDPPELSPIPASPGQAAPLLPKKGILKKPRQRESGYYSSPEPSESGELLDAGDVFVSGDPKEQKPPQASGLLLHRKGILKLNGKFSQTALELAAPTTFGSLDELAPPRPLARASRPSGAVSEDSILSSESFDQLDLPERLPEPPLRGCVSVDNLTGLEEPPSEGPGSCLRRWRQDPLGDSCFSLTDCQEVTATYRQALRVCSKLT

[15] = target: Serine/threonine-protein kinase 33 (Homo sapiens) (UniProt Q9BYT3)

Measured: residual activity

Sequence of Cyclin-dependent kinase 19 (Homo sapiens) (Q9BWU1 whole entry): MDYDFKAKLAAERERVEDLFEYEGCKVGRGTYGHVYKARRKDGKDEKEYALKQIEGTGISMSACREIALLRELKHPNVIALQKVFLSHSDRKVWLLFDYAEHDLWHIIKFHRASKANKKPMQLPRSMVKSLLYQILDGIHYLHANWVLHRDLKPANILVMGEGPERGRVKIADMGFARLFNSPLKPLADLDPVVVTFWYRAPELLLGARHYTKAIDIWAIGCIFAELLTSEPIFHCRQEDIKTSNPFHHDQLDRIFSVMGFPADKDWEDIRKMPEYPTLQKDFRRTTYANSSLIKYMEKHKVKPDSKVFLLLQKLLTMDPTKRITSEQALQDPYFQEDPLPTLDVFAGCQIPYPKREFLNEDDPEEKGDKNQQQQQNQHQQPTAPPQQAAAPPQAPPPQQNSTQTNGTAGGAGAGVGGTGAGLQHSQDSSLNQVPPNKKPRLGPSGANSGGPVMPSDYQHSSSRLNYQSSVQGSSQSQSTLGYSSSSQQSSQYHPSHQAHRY
Sequence of Myosin light chain kinase family member 4 (Homo sapiens) (Q86YV6 whole entry): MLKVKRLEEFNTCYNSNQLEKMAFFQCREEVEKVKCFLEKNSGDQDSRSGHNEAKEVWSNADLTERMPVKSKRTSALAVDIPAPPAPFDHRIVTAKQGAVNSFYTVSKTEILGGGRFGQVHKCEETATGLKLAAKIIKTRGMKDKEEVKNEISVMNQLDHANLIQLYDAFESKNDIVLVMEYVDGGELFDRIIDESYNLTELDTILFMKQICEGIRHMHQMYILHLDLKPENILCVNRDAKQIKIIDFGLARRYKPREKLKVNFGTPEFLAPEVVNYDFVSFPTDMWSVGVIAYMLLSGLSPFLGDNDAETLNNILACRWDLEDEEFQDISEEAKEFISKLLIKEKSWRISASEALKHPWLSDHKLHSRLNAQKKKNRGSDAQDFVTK
Sequence of Serine/threonine-protein kinase PLK1 (Homo sapiens) (P53350 whole entry): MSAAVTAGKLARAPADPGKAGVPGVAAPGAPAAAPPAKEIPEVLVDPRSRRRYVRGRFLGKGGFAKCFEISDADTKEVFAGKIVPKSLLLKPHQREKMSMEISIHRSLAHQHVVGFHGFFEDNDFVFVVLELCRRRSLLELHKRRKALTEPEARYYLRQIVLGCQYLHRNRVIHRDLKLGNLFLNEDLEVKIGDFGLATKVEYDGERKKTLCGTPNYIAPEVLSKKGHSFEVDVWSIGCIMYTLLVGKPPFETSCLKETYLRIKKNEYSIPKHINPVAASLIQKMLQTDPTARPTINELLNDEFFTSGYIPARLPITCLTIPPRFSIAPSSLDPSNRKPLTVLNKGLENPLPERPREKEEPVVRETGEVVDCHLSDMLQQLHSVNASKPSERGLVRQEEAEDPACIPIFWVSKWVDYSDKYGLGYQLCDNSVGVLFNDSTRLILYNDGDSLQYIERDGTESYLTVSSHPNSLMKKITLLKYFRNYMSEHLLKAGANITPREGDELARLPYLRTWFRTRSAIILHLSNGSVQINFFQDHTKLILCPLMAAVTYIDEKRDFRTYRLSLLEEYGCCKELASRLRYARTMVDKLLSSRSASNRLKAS
Sequence of Cyclin-dependent kinase 14 (Homo sapiens) (O94921 whole entry): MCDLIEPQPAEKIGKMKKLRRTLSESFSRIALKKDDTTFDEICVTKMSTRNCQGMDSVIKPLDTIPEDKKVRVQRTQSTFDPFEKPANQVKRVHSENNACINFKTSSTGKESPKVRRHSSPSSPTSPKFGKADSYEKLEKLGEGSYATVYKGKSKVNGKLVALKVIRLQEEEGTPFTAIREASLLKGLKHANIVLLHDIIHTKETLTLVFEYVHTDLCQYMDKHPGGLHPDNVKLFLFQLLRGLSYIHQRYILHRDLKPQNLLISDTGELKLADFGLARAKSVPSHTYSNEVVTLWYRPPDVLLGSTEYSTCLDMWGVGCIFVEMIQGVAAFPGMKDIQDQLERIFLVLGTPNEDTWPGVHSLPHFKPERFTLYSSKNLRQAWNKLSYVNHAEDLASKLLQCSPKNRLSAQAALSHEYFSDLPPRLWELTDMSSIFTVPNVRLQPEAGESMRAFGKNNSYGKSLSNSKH
Sequence of Fibroblast growth factor receptor 3 (Homo sapiens) (P22607 23-806 limits assumed): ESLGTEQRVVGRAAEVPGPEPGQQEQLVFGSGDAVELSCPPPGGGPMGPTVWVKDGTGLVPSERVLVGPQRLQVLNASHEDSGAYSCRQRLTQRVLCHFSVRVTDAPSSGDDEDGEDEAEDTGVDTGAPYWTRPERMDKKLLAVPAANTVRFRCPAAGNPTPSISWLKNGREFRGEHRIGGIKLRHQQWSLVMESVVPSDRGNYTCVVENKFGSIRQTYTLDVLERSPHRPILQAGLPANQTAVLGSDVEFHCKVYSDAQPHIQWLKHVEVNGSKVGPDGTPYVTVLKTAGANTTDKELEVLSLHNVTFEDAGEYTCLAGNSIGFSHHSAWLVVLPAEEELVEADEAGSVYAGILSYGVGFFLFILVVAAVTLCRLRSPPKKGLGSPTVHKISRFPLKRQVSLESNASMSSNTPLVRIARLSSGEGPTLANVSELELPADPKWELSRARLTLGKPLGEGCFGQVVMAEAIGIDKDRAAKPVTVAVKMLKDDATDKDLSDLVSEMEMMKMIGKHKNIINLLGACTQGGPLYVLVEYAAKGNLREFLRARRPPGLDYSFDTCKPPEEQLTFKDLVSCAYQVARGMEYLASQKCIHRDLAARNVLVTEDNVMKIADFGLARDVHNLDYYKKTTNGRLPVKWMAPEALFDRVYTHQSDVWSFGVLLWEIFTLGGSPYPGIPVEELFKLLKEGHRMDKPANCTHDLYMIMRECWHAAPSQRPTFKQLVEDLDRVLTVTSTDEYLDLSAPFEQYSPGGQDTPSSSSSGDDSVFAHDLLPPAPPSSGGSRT
Sequence of Serine/threonine-protein kinase 33 (Homo sapiens) (Q9BYT3 whole entry, looked up): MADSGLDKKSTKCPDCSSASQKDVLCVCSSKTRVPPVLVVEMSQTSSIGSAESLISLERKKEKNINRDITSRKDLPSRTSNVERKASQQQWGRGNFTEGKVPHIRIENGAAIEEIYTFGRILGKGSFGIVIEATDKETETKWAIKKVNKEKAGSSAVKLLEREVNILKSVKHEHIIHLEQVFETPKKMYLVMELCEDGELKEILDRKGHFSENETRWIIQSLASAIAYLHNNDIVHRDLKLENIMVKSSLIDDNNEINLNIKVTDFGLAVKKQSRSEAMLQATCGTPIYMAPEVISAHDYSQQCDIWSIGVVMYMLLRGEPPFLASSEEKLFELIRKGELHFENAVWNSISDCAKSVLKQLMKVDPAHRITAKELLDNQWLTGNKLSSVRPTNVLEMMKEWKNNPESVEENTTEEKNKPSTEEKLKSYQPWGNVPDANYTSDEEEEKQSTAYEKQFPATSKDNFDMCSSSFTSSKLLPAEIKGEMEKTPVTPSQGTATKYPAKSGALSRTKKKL
Sequence of Mitogen-activated protein kinase 9 (Homo sapiens) (P45984 whole entry, looked up): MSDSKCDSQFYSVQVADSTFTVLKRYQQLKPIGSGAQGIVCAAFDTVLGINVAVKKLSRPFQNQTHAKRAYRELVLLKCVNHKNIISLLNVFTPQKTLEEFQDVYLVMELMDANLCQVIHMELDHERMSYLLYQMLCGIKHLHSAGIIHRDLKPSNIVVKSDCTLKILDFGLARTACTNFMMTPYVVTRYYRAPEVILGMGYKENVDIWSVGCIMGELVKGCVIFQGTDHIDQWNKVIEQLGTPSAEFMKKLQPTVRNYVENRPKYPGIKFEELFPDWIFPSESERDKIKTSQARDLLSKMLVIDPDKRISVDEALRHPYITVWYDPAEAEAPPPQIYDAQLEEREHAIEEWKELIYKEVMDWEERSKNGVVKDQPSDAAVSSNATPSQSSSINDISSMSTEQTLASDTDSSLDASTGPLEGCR
Sequence of Cyclin-dependent kinase 5 (Homo sapiens) (Q00535 whole entry, looked up, the tested form may be a part): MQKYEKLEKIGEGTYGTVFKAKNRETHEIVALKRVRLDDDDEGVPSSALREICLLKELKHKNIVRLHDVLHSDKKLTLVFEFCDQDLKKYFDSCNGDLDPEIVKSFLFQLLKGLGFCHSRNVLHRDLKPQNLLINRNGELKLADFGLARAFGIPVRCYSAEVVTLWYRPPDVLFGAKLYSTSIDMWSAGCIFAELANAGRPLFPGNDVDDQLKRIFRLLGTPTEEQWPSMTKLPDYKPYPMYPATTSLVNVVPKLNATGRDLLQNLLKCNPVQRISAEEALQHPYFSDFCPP
Sequence of Mitogen-activated protein kinase kinase kinase 12 (Homo sapiens) (Q12852 whole entry): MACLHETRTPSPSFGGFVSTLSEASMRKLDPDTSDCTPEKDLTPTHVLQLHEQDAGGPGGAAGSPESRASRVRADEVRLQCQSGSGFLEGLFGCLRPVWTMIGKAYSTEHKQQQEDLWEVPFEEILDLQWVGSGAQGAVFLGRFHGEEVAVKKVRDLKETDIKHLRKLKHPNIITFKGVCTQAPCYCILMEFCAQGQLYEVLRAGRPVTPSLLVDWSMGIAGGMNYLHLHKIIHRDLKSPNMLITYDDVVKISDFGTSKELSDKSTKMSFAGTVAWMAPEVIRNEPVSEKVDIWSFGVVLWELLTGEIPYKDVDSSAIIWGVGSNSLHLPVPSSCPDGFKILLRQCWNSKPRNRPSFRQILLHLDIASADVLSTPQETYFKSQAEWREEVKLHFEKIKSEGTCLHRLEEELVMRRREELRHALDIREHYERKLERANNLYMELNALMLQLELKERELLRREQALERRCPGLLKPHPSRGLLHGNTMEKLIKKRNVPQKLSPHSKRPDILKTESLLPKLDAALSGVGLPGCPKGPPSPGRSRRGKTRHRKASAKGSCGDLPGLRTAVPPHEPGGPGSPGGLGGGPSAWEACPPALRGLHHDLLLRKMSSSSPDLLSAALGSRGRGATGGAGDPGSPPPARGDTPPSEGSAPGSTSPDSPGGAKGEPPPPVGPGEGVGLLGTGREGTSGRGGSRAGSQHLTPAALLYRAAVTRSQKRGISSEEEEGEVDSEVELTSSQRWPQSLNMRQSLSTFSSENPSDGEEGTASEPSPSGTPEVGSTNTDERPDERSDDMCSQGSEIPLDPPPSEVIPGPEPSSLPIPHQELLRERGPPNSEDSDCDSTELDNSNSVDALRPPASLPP

Cc1nc(C2CCN(C(=O)c3ccc(OC(F)(F)F)cc3N)CC2)c2ncc(N3CCN(C)CC3)cc2n1 [BAY-693]
inactive: [1] 86% | [2] 88% | [3] 92% | [4] 100% | [5] 100% | [6] 100% | [7] 100% | [8] 100% | [9] 97% | [10] 100% | [11] 100% | [12] 100% | [13] 79% | [14] 81% | [15] 100%

CN1CCN(c2cnc3c(C4CCN(C(=O)c5ccc(OC(F)(F)F)cc5N)CC4)ncnc3c2)CC1 [BAY-885]
inactive: [1] 79% | [2] 87% | [3] 100% | [4] 100% | [5] 92% | [6] 100% | [7] 100% | [8] 100% | [9] 88% | [10] 100% | [11] 100% | [12] 91% | [13] 93% | [14] 90% | [15] 99%
